According to patent US7048907B2, “Synthesis, compositions and methods for the measurement of the concentration of stable-isotope labeled compounds in life forms and life form excretory products” (BioPhysics Assay Laboratory, Inc., priority 2001, dated 2006):

Assays:
[1] = Effect of dilution on the stability of Sm-DTPA; assay type: physicochemical
Protocol: Sm-DTPA (1 mM) was prepared as described in Example 9. The solution was further diluted with 0.01 M Tris buffer pH 7.51:10, 1:100, 1:1000, and 1:10000 and allowed to stand at room temperature for 24 hours. The four samples were then assayed for stability of the Sm-DTPA complex as described in Example 17.

[2] = Stability of chelates in rat serum (CM-Sephadex assay, serum binding); conditions: 24 hours in rat serum at room temperature
[3] = Blood depletion of Gd-DTPA in the rat after three sequential administrations (theoretical example); assay type: in vivo
Protocol: In this theoretical example, three 0.5 ml samples of Gd-DTPA (0.05 mg/kg) each dissolved in saline (pH 7) are injected sequentially at 0, 20, and 40 minutes into the tail vein of a rat. Samples of blood are obtained at 10, 30 and 60 minutes following each injection and analyzed for Gd by T1 relaxation. […] This example highlights one advantage of using neutron activation over T1 relaxivity to measure pharmacological rates of elimination when using sequential injections (compare Examples 32 and 33).

[4] = demonstrated by properties of the marketed pharmaceutical product; cited from earlier work
[5] = Sm-DTPA 0.1 μM, 24 hours room temperature, Fraction 1: 3 ml Tris before sample
[6] = Sm-DTPA 0.1 μM, 24 hours room temperature, Fraction 2: sample then 3 ml Tris (eluate)
[7] = Sm-DTPA 0.1 μM, 24 hours room temperature, Fraction 3: further 3 ml Tris
[8] = Sm-DTPA 0.1 μM, 24 hours room temperature, Fraction 4: column and contents
[9] = Sm-DTPA 1 μM, 24 hours room temperature, Fraction 1: 3 ml Tris before sample
[10] = Sm-DTPA 1 μM, 24 hours room temperature, Fraction 2: sample then 3 ml Tris (eluate)
[11] = Sm-DTPA 1 μM, 24 hours room temperature, Fraction 3: further 3 ml Tris
[12] = Sm-DTPA 1 μM, 24 hours room temperature, Fraction 4: column and contents
[13] = Sm-DTPA 10 μM, 24 hours room temperature, Fraction 1: 3 ml Tris before sample
[14] = Sm-DTPA 10 μM, 24 hours room temperature, Fraction 2: sample then 3 ml Tris (eluate)
[15] = Sm-DTPA 10 μM, 24 hours room temperature, Fraction 3: further 3 ml Tris
[16] = Sm-DTPA 10 μM, 24 hours room temperature, Fraction 4: column and contents
[17] = Sm-DTPA 100 uM, 24 hours room temperature, Fraction 1: 3 ml Tris before sample
[18] = Sm-DTPA 100 uM, 24 hours room temperature, Fraction 2: sample then 3 ml Tris (eluate)
[19] = Sm-DTPA 100 uM, 24 hours room temperature, Fraction 3: further 3 ml Tris
[20] = Sm-DTPA 100 uM, 24 hours room temperature, Fraction 4: column and contents
[21] = Sm-DTPA 1 mM, Fraction 1: 3 ml Tris before sample
[22] = Sm-DTPA 1 mM, Fraction 2: sample then 3 ml Tris (eluate)
[23] = Sm-DTPA 1 mM, Fraction 3: further 3 ml Tris
[24] = Sm-DTPA 1 mM, Fraction 4: column and contents
[25] = Fraction 1: 0.2 ml sample then 2 ml 0.01M Tris pH 7.5 (eluate)
[26] = Fraction 2: 3 ml 0.01M Tris pH 7.5
[27] = Fraction 3: column and contents (retained)

O=C([O-])CN(CCN(CC(=O)[O-])CC(=O)[O-])CCN(CC(=O)[O-])CC(=O)[O-].[Sm+3] [Sm-DTPA]
% of total [1, 5]: 0 % of total | Dpm [1, 5]: 0 dpm | % of total [1, 6]: 99 % of total | Dpm [1, 6]: 192 dpm | % of total [1, 7]: 1 % of total | Dpm [1, 7]: 1 dpm | % of total [1, 8]: 0 % of total | Dpm [1, 8]: 0 dpm | % of total [1, 9]: 0 % of total | Dpm [1, 9]: 0 dpm | % of total [1, 10]: 96 % of total | Dpm [1, 10]: 1386 dpm | % of total [1, 11]: 2 % of total | Dpm [1, 11]: 29 dpm | % of total [1, 12]: 2 % of total | Dpm [1, 12]: 21 dpm | % of total [1, 13]: 0 % of total | Dpm [1, 13]: 0 dpm | % of total [1, 14]: 100 % of total | Dpm [1, 14]: 15685 dpm | % of total [1, 15]: <1 % of total | Dpm [1, 15]: 19 dpm | % of total [1, 16]: 0 % of total | Dpm [1, 16]: 0 dpm | % of total [1, 17]: 0 % of total | Dpm [1, 17]: 0 dpm | % of total [1, 18]: 98 % of total | Dpm [1, 18]: 162208 dpm | % of total [1, 19]: <1 % of total | Dpm [1, 19]: 1308 dpm | % of total [1, 20]: 2 % of total | Dpm [1, 20]: 2121 dpm | % of total [1, 21]: 0 % of total | Dpm [1, 21]: 0 dpm | % of total [1, 22]: 97 % of total | Dpm [1, 22]: 1482087 dpm | % of total [1, 23]: 1 % of total | Dpm [1, 23]: 19089 dpm | % of total [1, 24]: 2 % of total | Dpm [1, 24]: 24257 dpm | stability of the complex on dilution ([1]; concentration limits of 1 mM to 0.1 μM, 24 hours room temperature): stable complex | % eluting from CM Sephadex columns ([1]; concentration range of 0.1 μM to 1 mM): 100%

O=C([O-])CN(CCN(CC(=O)[O-])CC(=O)[O-])CCN(CC(=O)[O-])CC(=O)[O-].[Eu+3] [Eu-DTPA]
% of total [2, 25]: 91 % of total | dpm [2, 25]: 4763 dpm | % of total [2, 26]: 9 % of total | dpm [2, 26]: 499 dpm | % of total [2, 27]: 0 % of total | dpm [2, 27]: 0 dpm

O=C([O-])CN(CCN(CC(=O)[O-])CC(=O)O)CCN(CC(=O)[O-])CC(=O)O.[Gd+3] [Gd-DTPA, Gd-diethylenetriaminepentaacetic acid]
Percent of initial injection, First injection ([3]; 0 min after 1st injection, Gd-DTPA 0.05 mg/kg i.v. at 0, 20, 40 minutes, T1 relaxation): 100% of initial injection | Percent of initial injection, Cumulative total ([3]; 0 min after 1st injection, calculated based upon the first injection): 100% of initial injection | Percent of initial injection, Cumulative total ([3]; 10 min after 1st injection): 81% of initial injection | Percent of initial injection, First injection ([3]; 10 min after 1st injection): 81% of initial injection | Percent of initial injection, Second injection ([3]; 20 min after 1st (0 min after 2nd) injection): 100% of initial injection | Percent of initial injection, Cumulative total ([3]; 20 min after 1st injection): 173% of initial injection | Percent of initial injection, First injection ([3]; 20 min after 1st injection): 73% of initial injection | Percent of initial injection, Second injection ([3]; 30 min after 1st (10 min after 2nd) injection): 81% of initial injection | Percent of initial injection, Cumulative total ([3]; 30 min after 1st injection): 140% of initial injection | Percent of initial injection, First injection ([3]; 30 min after 1st injection): 59% of initial injection | Percent of initial injection, Third injection ([3]; 40 min after 1st (0 min after 3rd) injection): 100% of initial injection | Percent of initial injection, Second injection ([3]; 40 min after 1st (20 min after 2nd) injection): 73% of initial injection | Percent of initial injection, Cumulative total ([3]; 40 min after 1st injection): 220% of initial injection | Percent of initial injection, First injection ([3]; 40 min after 1st injection): 47% of initial injection | Percent of initial injection, Third injection ([3]; 50 min after 1st (10 min after 3rd) injection): 81% of initial injection | Percent of initial injection, Second injection ([3]; 50 min after 1st (30 min after 2nd) injection): 59% of initial injection | Percent of initial injection, Cumulative total ([3]; 50 min after 1st injection): 175% of initial injection | Percent of initial injection, First injection ([3]; 50 min after 1st injection): 35% of initial injection | Percent of initial injection, Third injection ([3]; 60 min after 1st (20 min after 3rd) injection): 73% of initial injection | Percent of initial injection, Second injection ([3]; 60 min after 1st (40 min after 2nd) injection): 47% of initial injection | Percent of initial injection, Cumulative total ([3]; 60 min after 1st injection): 149% of initial injection | Percent of initial injection, First injection ([3]; 60 min after 1st injection): 29% of initial injection | Percent of initial injection, Third injection ([3]; 70 min after 1st (30 min after 3rd) injection): 59% of initial injection | Percent of initial injection, Second injection ([3]; 70 min after 1st (50 min after 2nd) injection): 35% of initial injection | Percent of initial injection, Cumulative total ([3]; 70 min after 1st injection): 120% of initial injection | Percent of initial injection, First injection ([3]; 70 min after 1st injection): 26% of initial injection | Percent of initial injection, Third injection ([3]; 80 min after 1st (40 min after 3rd) injection): 47% of initial injection | Percent of initial injection, Second injection ([3]; 80 min after 1st (60 min after 2nd) injection): 26% of initial injection | Percent of initial injection, Cumulative total ([3]; 80 min after 1st injection): 95% of initial injection | Percent of initial injection, First injection ([3]; 80 min after 1st injection): 22% of initial injection | Percent of initial injection, Third injection ([3]; 100 min after 1st (60 min after 3rd) injection): 35% of initial injection | Percent of initial injection, Second injection ([3]; 100 min after 1st (80 min after 2nd) injection): 22% of initial injection | Percent of initial injection, Cumulative total ([3]; 100 min after 1st injection): 75% of initial injection | Percent of initial injection, First injection ([3]; 100 min after 1st injection): 18% of initial injection | stability to autoclaving [4]: stability of gadolinium-DTPA to autoclaving is demonstrated

O=C([O-])CN(CCN(CC(=O)[O-])CC(=O)[O-])CCN(CC(=O)[O-])CC(=O)[O-].[La+3] [La-DTPA]
% of total [2, 25]: 93 % of total | dpm [2, 25]: 82912 dpm | % of total [2, 26]: 7 % of total | dpm [2, 26]: 6167 dpm | % of total [2, 27]: 0 % of total | dpm [2, 27]: 0 dpm
